Common to all, as to assay: DTP human tumour cell line panel, 48 h
Assay [1] relates to CCRF-CEM.
The subject of assay [2] is OVCAR-8.
Assay [3] relates to LOX IMVI.
Assay [4] deals with SNB-19.
Assay [5] relates to SK-MEL-5.
Assay [6] concerns RPMI-8226.
Assay [7] has as its system SR.
Assay [8] concerns ACHN.
Assay [9] deals with SF-268.
For assay [10], the system named is HT-29.
In assay [11] the test system is CAKI-1.
Assay [12] has as its system HCC 2998.
In assay [13] the test system is SK-MEL-2.
Assay [14] concerns MCF7.
The test system of assay [15] is EKVX.
Assay [16] deals with Malme-3M.
The test system of assay [17] is DU-145.
Assay [18] deals with NCI-H23.
In assay [19] the test system is COLO 205.
Assay [20] relates to M14.

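48-hour exposure; five concentrations; linearly interpolated endpoints. Abbreviation: GI50, concentration required for 50% inhibition of growth.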 Active and inactive are the calls of the source. Cut-off read from the data, not from the text of the source: active = GI50 up to about 1.1 µM and inactive = higher.

One may read the GI50 as the concentration that inhibits growth by half. Turning to `O=[N+]([O-])c1ccc(O)c(/C=N/c2nc(-c3ccccc3)cs2)c1`, the GI50 was 43.3 µM (inactive) in assay [1]; 25.9 µM (inactive) in [2]; 15.8 µM (inactive) in assay [3]; 29 µM (inactive) in assay [4]; 13.2 µM (inactive) in assay [5]; 8.95 µM (inactive) in [6]. Also, the GI50 is 3.03 µM (inactive) in [7]; 31.4 µM (inactive) in [8]; 27.9 µM (inactive) in assay [9]; 34.2 µM (inactive) in assay [10]; 77.6 µM (inactive) in [11]; 24.8 µM (inactive) in [12]. The GI50 in assay [13] was 24.4 µM (inactive); in [14], 26.8 µM (inactive); in assay [15], 31.3 µM (inactive); in [16] it was 24.8 µM (inactive); in assay [17], 30.4 µM (inactive); in assay [18], 20.3 µM (inactive). Besides, the GI50 in [19] was 19.6 µM (inactive); in assay [20] it was 29.4 µM (inactive).

On to `COc1cc(/C=C/C=C2\CC(C)C/C(=C\C=C\c3ccc(O)c(OC)c3)C2=O)ccc1O` (stereo not given), for which the GI50 in [1] is 1.14 µM (inactive); in assay [2], 11.5 µM (inactive); in assay [3] it was 12.4 µM (inactive); in [4], 23 µM (inactive); in [5], 10.5 µM (inactive); in [6], 7.13 µM (inactive). Besides, the GI50 in [7] was 1.69 µM (inactive); in assay [8], 4.98 µM (inactive); in assay [9], 10.3 µM (inactive); in assay [10], 4.08 µM (inactive); in [11], 12.1 µM (inactive); in assay [12] it was 17.5 µM (inactive). For the same compound, the GI50 in assay [13] is 17.1 µM (inactive); in assay [14], 5.6 µM (inactive); in assay [15] it was 10.3 µM (inactive); in assay [16] it was 9.48 µM (inactive); in [17] it was 19.5 µM (inactive); in assay [18] it was 12.2 µM (inactive). The GI50 in [19] is 16.7 µM (inactive); in assay [20], 15.4 µM (inactive).

With `O=C(Cc1ccc(Cl)cc1)Nc1ccc2oc(-c3ccccc3)nc2c1`, the GI50 in assay [1] is > 100 µM (inactive); in [2] it was 32.7 µM (inactive); in [3], > 100 µM (inactive); in [4] it was 38.9 µM (inactive); in assay [5], > 100 µM (inactive); in assay [6], > 100 µM (inactive). Also, the GI50 in assay [7] was > 100 µM (inactive); in [8], > 100 µM (inactive); in [9], 74 µM (inactive); in [10] it was > 100 µM (inactive); in assay [11], > 100 µM (inactive); in assay [12] it was > 100 µM (inactive). For the same compound, the GI50 in assay [13] was 89.1 µM (inactive); in assay [14], > 100 µM (inactive); in assay [15], 30.8 µM (inactive); in [16], > 100 µM (inactive); in [17], > 100 µM (inactive); in assay [18], > 100 µM (inactive). The GI50 in assay [19] and in assay [20] was > 100 µM (inactive) each time.

As to `O=C(Cn1cc(-c2ccccc2)nn1)NC1CCCC1`, the GI50 in [1], in [2], in [3], in assay [4], in [5] and in assay [6] was > 100 µM (inactive) each time. The GI50 in assay [7], in [8], in [9], in assay [10], in assay [11] and in assay [12] was > 100 µM (inactive) each time. Further, the GI50 in [13], in [14], in [15], in assay [16], in [17] and in assay [18] was > 100 µM (inactive) each time. Also, the GI50 in assay [19] and in assay [20] was > 100 µM (inactive) each time.

Regarding `O=[N+]([O-])c1ccc2c(Nc3ccccc3-c3ccccc3Nc3c4ccccc4nc4cc([N+](=O)[O-])ccc34)c3ccccc3nc2c1`, the GI50 in [1] is 3.88 µM (inactive); in assay [2], 3.93 µM (inactive); in assay [3], 9.57 µM (inactive); in assay [4] it was 4.32 µM (inactive); in [5], 1.99 µM (inactive); in assay [6], 1.69 µM (inactive). For the same compound, the GI50 in assay [7] was 1.69 µM (inactive); in assay [8] it was 3.17 µM (inactive); in assay [9], 6.55 µM (inactive); in assay [10], 4.14 µM (inactive); in assay [11], 6.46 µM (inactive); in assay [12], 3.98 µM (inactive). Further, the GI50 in assay [13] was 2.03 µM (inactive); in assay [14], 4.18 µM (inactive); in assay [15], 11.8 µM (inactive); in [16], 8.63 µM (inactive); in assay [17], 6.89 µM (inactive); in assay [18], 10.8 µM (inactive). Also, the GI50 was 2.74 µM (inactive) in assay [19] and 2.92 µM (inactive) in assay [20].

As for `O=Cc1ccc2c(c1)CC1(C2)Cc2ccc(C=O)cc2C1`, the GI50 in assay [1] is 1.68 µM (inactive); in assay [2], 7.26 µM (inactive); in assay [3], 6.07 µM (inactive); in assay [4] it was 25.1 µM (inactive); in assay [5], 5.28 µM (inactive); in assay [6], 0.274 µM (active). The GI50 in assay [7] is 2.67 µM (inactive); in assay [8], 24.4 µM (inactive); in assay [9], 13.4 µM (inactive); in assay [10], 24.5 µM (inactive); in assay [11], 44.9 µM (inactive); in assay [12] it was 35.8 µM (inactive). Further, the GI50 in assay [13] is 11.8 µM (inactive); in assay [14], 31.8 µM (inactive); in assay [15], 28.2 µM (inactive); in [16], 20 µM (inactive); in assay [17], 35.5 µM (inactive); in assay [18], 17.6 µM (inactive). In addition, the GI50 in assay [19] was 30.3 µM (inactive); in assay [20], 6.14 µM (inactive).

As for `COC1=C(OC)C(=O)C(Cc2c(Cl)nc3sc(C)cn23)=C(C)C1=O`, the GI50 is 3.02 µM (inactive) in [1]; 19.1 µM (inactive) in assay [2]; 11.7 µM (inactive) in assay [3]; 17.9 µM (inactive) in assay [4]; 11.2 µM (inactive) in assay [5]; 11.2 µM (inactive) in assay [6]. The GI50 is 16.7 µM (inactive) in assay [7]; 17.1 µM (inactive) in assay [8]; 16.6 µM (inactive) in assay [9]; 17.9 µM (inactive) in assay [10]; 24.5 µM (inactive) in assay [11]; 17.2 µM (inactive) in assay [12]. Also, the GI50 in assay [13] was 22.3 µM (inactive); in assay [14], 19.5 µM (inactive); in [15], 17.3 µM (inactive); in assay [16], 12.2 µM (inactive); in assay [17], 22.1 µM (inactive); in [18], 13.7 µM (inactive). Besides, the values for the GI50 in assay [19] and in [20] were 19.6 µM (inactive) and 17.1 µM (inactive), respectively.

`CCOC(=O)c1c(C)n(-c2ccc(Cl)cc2)c2c1cc(O)c1[nH]c3c(c12)CCCC3`: the GI50 in [1] is 32.4 µM (inactive); in assay [2], 55.6 µM (inactive); in assay [3], 29.4 µM (inactive); in assay [4], 46.3 µM (inactive); in assay [5] it was 21.6 µM (inactive); in [6], 33.9 µM (inactive). Further, the GI50 in assay [7] is 3.87 µM (inactive); in assay [8] it was 46.3 µM (inactive); in assay [9], 50.5 µM (inactive); in assay [10], 30.2 µM (inactive); in assay [11], > 100 µM (inactive); in assay [12], 60.7 µM (inactive). Besides, the GI50 in assay [13] was 29.6 µM (inactive); in assay [14] it was 34.7 µM (inactive); in [15] it was 75.7 µM (inactive); in [16], 80.2 µM (inactive); in [17], > 100 µM (inactive); in [18], 48.6 µM (inactive). The GI50 was 48.8 µM (inactive) in assay [19] and 57.3 µM (inactive) in assay [20].

With `CCOC(=O)NC(=S)c1ccc(O)c2ccccc12`, the GI50 was 8.63 µM (inactive) in assay [1]; 34.2 µM (inactive) in assay [2]; 28.6 µM (inactive) in [3]; 95.5 µM (inactive) in assay [4]; 42.8 µM (inactive) in assay [5]; 74.5 µM (inactive) in assay [6]. Besides, the GI50 in [7] is 25.5 µM (inactive); in assay [8] it was 80.5 µM (inactive); in assay [9], 12.4 µM (inactive); in assay [10] it was 66.1 µM (inactive); in [11], 44.2 µM (inactive); in assay [12] it was 91 µM (inactive). For the same compound, the GI50 in assay [13] is > 100 µM (inactive); in assay [14], 72.1 µM (inactive); in assay [15] it was 27.9 µM (inactive); in assay [16] it was 33.1 µM (inactive); in assay [17], > 100 µM (inactive); in assay [18] it was 55.5 µM (inactive). Besides, the GI50 in [19] is > 100 µM (inactive); in [20], 70.1 µM (inactive).

Turning to `[N-]=[N+]=NCC1OCC(O)C(OCc2ccccc2)C1OCc1ccccc1` (stereo not given), the GI50 in assay [1] is 83.4 µM (inactive); in assay [2], > 100 µM (inactive); in assay [3], > 100 µM (inactive); in [4] it was > 100 µM (inactive); in assay [5], 95.9 µM (inactive); in assay [6] it was > 100 µM (inactive). The GI50 in assay [7] is 57.1 µM (inactive); in assay [8], > 100 µM (inactive); in [9], > 100 µM (inactive); in assay [10], 36.3 µM (inactive); in assay [11], > 100 µM (inactive); in assay [12], 72.8 µM (inactive). For the same compound, the GI50 in assay [13] was 39.4 µM (inactive); in [14], > 100 µM (inactive); in assay [15], 48.4 µM (inactive); in assay [16], > 10 µM (inactive); in [17], 86.7 µM (inactive); in assay [18], > 100 µM (inactive). The GI50 in [19] and in [20] was > 100 µM (inactive) in each case.
